PubChem BioAssay (NCI)
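Test compounds were applied to cells in 96-well plates for 48 hours at 5 doses. Abbreviation: GI50, concentration required for 50% inhibition of growth. At the TGI there is no net growth.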

Legend:
Test in all cases: inhibition of tumour cell growth, NCI panel, 48 h
A498 renal = test system: A498 renal
MALME-3M melanoma = test system: MALME-3M melanoma
MDA-MB-435 = test system: MDA-MB-435
NCI-H460 lung = test system: NCI-H460 lung
SF-268 CNS = test system: SF-268 CNS
SK-MEL-28 melanoma = test system: SK-MEL-28 melanoma
SN12C renal = test system: SN12C renal
SNB-75 CNS = test system: SNB-75 CNS
TK-10 renal = test system: TK-10 renal
UO-31 renal = test system: UO-31 renal

Structure (SMILES) | GI50 (A498 renal) | TGI (A498 renal) | GI50 (MALME-3M melanoma) | TGI (MALME-3M melanoma) | GI50 (MDA-MB-435) | TGI (MDA-MB-435) | GI50 (NCI-H460 lung) | TGI (NCI-H460 lung) | GI50 (SF-268 CNS) | TGI (SF-268 CNS) | GI50 (SK-MEL-28 melanoma) | TGI (SK-MEL-28 melanoma) | GI50 (SN12C renal) | TGI (SN12C renal) | GI50 (SNB-75 CNS) | TGI (SNB-75 CNS) | GI50 (TK-10 renal) | TGI (TK-10 renal) | GI50 (UO-31 renal) | TGI (UO-31 renal)
Clc1nc(Cl)c2ncn(C/C=C/Cn3cnc4c(Cl)nc(Cl)nc43)c2n1 | 21.5 µM | 41.2 µM | 31.2 µM | 52.5 µM | 19.8 µM | 39.4 µM | 20 µM | 40.7 µM | 14.6 µM | 30.5 µM | 17.5 µM | 33 µM | 19.7 µM | 40.7 µM | 19.1 µM | 44 µM | 21.7 µM | 39 µM | 17.9 µM | 34.5 µM
CCOC(=O)/C(=C/c1ccccc1)C(=O)c1ccccc1 | 3.08 µM | 13.1 µM | 2.94 µM | 9.09 µM | 2.96 µM | 11.5 µM | 3.27 µM | 10.9 µM | 4.37 µM | 21.1 µM | 2.42 µM | 6.59 µM | 3.21 µM | 12 µM | 2.95 µM | 14.5 µM | 3.41 µM | 11.2 µM | 1.76 µM | 3.55 µM
CCCCCCCCCCCCOC1C(CNCC2OC3OC(C)(C)OC3C2NC(=O)Nc2ccc(C(F)(F)F)cc2)OC2OC(C)(C)OC21 (stereo not drawn) | 8.45 µM | 15.5 µM | 3.39 µM | 13.7 µM | 5.27 µM | 13.4 µM | 4.23 µM | 11.8 µM | 7.93 µM | 16.6 µM | 7.28 µM | 14.5 µM | 7.04 µM | 15.3 µM | 6.04 µM | 13.4 µM | 3.39 µM | 7.86 µM | 7.33 µM | 16.3 µM
Fc1c[c-]c(-c2ccccn2)c(F)c1.[CH3-].[Pt+2].c1ccc([PH+](c2ccccc2)c2ccccn2)cc1 | 1.48 µM | 4.06 µM | 1.35 µM | 2.81 µM | 1.74 µM | 3.45 µM | 1.63 µM | 4.91 µM | 1.89 µM | 5.18 µM | 1.64 µM | 3.15 µM | 1.51 µM | 4.24 µM | 1.03 µM | 9.9 µM | 3.59 µM | 12.9 µM | 1.08 µM | 2.28 µM
Cc1c2cnccc2c(C)c2c1c1cc(C(=O)O)ccc1n2C | 0.41 µM | 2.14 µM | 0.942 µM | 2.97 µM | 1.33 µM | 3.4 µM | 0.874 µM | 8.46 µM | 0.937 µM | 4.81 µM | 1.36 µM | 3.71 µM | 0.772 µM | 10.2 µM | 1.1 µM | 2.53 µM | 1.79 µM | 8.96 µM | 0.49 µM | 4.21 µM
COc1ccc2c(c1)CC[C@@H]1[C@@H]2CC[C@]2(C)c3[nH]ncc3C[C@@H]12 | 25.9 µM | > 50 µM | 11.7 µM | 27 µM | 14.7 µM | 44.5 µM |  |  | 19.6 µM | > 50 µM | 32.1 µM | > 50 µM | 18 µM | > 50 µM | 21.9 µM | > 50 µM | 27 µM | > 50 µM | 19.6 µM | > 50 µM
COc1ccc(S(=O)(=O)NC2=NCCN2C(=S)SN2CCn3c2nsc3=S)cc1OC | 37.3 µM | > 100 µM | 16.7 µM | 43.7 µM | 19.8 µM | 44.1 µM | 28.1 µM | > 100 µM | 23.2 µM | 79.2 µM | 16.5 µM | 37.5 µM | 22.6 µM | 54.9 µM | 12.7 µM | 46.4 µM | 22.2 µM | 73.8 µM | 35.8 µM | > 100 µM
Cc1cc(C(=O)N[C@@H](CCC(=O)O)C(=O)O)sc1CC[C@@H]1CNc2nc(N)[nH]c(=O)c2C1 | 0.0598 µM | > 100 µM | 0.0398 µM | > 100 µM | 0.0296 µM | > 100 µM | < 0.0119 µM | > 100 µM | 0.0372 µM | > 100 µM | 0.0377 µM | > 100 µM | 0.0253 µM | > 100 µM | 0.252 µM | > 100 µM | < 0.0154 µM | > 100 µM | < 0.01 µM | > 100 µM
FC(F)(F)c1[nH]ncc1-c1nc2c(N3CCCCC3)cc3[nH]ncc3c2c2c1CCCC2 | 0.0566 µM | 0.196 µM | 0.843 µM | 2.14 µM | 0.741 µM | 2.19 µM | 0.49 µM | 1.9 µM | 0.786 µM | 1.97 µM | 0.617 µM | 1.78 µM | 0.878 µM | > 15.7 µM | 0.533 µM | 1.2 µM | 0.615 µM | > 50 µM | 0.873 µM | 3.01 µM
Cc1cc(O)c(C2=NN(c3ccc(S(N)(=O)=O)cc3)C(c3ccccc3O)C2)cc1Cl (stereo not drawn) | 1.69 µM | 7.29 µM | 2.2 µM | 6.7 µM | 2.01 µM | 4.32 µM | 2.07 µM | 4.38 µM | 2.64 µM | 8.06 µM | 2.74 µM | 6.8 µM | 2.8 µM | 8.65 µM | 1.54 µM | 8.64 µM | 3.03 µM | 7.32 µM | 0.181 µM | 5.65 µM
COc1ccccc1-c1ccc2nc(NC(=O)Nc3cc(C(F)(F)F)cc(C(F)(F)F)c3)sc2c1 | 1.64 µM | 3.9 µM | 1.81 µM | 4.29 µM | 2.27 µM | 6.73 µM | 2.26 µM | 6.12 µM | 2.86 µM | 12.2 µM | 2.51 µM | 9.1 µM | 1.7 µM | 3.36 µM | 2.25 µM | 11.8 µM | 4.03 µM | 13.2 µM | 1.79 µM | 4.07 µM
COc1cccc2c1C(=O)c1c(O)c3c(c(O)c1C2=O)C[C@@](O)(C(=O)CO)C[C@@H]3OC1CC(OC(C)=O)C(OC(C)=O)C(C)O1 (stereo partly drawn) | 0.127 µM | 1.62 µM | 0.502 µM | 2.19 µM | 1.27 µM | 4.63 µM | < 0.0239 µM | 1.57 µM | 0.287 µM | 4.46 µM | 1.39 µM | 3.2 µM | 0.255 µM | 5.87 µM | 0.687 µM | 8.53 µM | 0.985 µM | 6.43 µM | 0.258 µM | 1.99 µM
